The nature of this data set: gradient 5% acetonitrile 3 min, to 50% in 2 min, to 85% in 15 min, held 3 min, 100 µL/min. The settings on record: column: Zorbax Extend-C18 2.1 x 50 mm; eluents: water / acetonitrile, 0.1% formic acid. In a few lines:
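Over 3 months, pure standards in mixtures of ~100 molecules were run by HPLC coupled to a quadrupole time-of-flight mass spectrometer in positive and negative ionization mode. The column was a Zorbax Extend-C18 (2.1 × 50 mm, 1.8 μm) at 100 μL/min, eluted with water and acetonitrile each holding 0.1% formic acid, with 40 μL dead and 900 μL dwell volumes. Retention time was determined from adduct peaks chosen by software and checked manually.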
For the molecule `Cc1nc(-c2cnccn2)n(CC(=O)Nc2ccc(F)cc2)c(=O)c1C`, the RP-LC retention time is 709 s. For `CCSc1nc(NCC(C)C)c2cnn(CCNC(=O)c3cn(C)nc3OC)c2n1` the value was 749 s.

In the case of `CCOC(=O)C(C(=O)NCCCN1CCOCC1)C1CCCCC1` (configuration not stated), the RP-LC retention time is 624 s. For `Cc1noc(C)c1CNC(=O)NCCc1ccccc1` the value was 689 s; for `COc1cc(OC)cc(C(=O)N2CCN=C2N2CCC(C)CC2)c1`, 694 s; for `CN(CC(=O)Nc1ccc(F)cc1)C(=O)C1CCN(c2cnn(C)c(=O)c2)C1` (configuration not stated), 634 s. For `CC(C)Cn1c(=O)c(C(=O)NCc2cccc(C(F)(F)F)c2)nc2cccnc21` the value was 1030 s; for `CSc1ccc(-c2nc3cnccn3c2Nc2cccc(C(=O)NC3CCCCC3)c2)cc1`, 892 s; for `CC1(CNC(=O)Cc2c[nH]c3ccccc23)CCOCC1`, 668 s. For `COCCOCc1nc(C2CCCN2S(=O)(=O)c2cccc3nsnc23)no1` (configuration not stated) the value was 759 s. In turn, `Cc1ccc(N2CCN(C(=O)C3=CCN(Cc4cccc(C)c4)CC3)CC2)cc1` displayed an RP-LC retention time of 697 s. For `CC(=O)N1CCc2nn(CC(=O)Nc3ccccc3Cl)c(=O)cc2C1` the value was 606 s; for `CC(O)(CNC(=O)c1cnc2ccccc2n1)c1ccco1` (configuration not stated), 675 s; for `COC1CCC12CCN(C(=O)c1conc1C)CC2` (configuration not stated), 679 s.

The molecule `Cc1c(C(=O)NC2CC2)cc(-c2ccccc2)n1C` showed an RP-LC retention time of 605 s. `Cn1c(C(=O)NCc2ccccc2)cc2ccncc21`: the RP-LC retention time is 604 s. Take `COc1ccccc1OCCNC(=O)C1CC(=O)N(c2n[nH]c3ccccc23)C1` (configuration not stated): the RP-LC retention time came to 682 s. With `Cc1cccn2cc(C(=O)NCc3cc(F)cc(F)c3)nc12`, the RP-LC retention time is 668 s. For `COc1cc(OC)c(C(=O)CCCCN2CCC3(CC2)NC(=O)NC3=O)cc1NS(=O)(=O)c1ccc(C(F)(F)F)cc1` the value was 750 s; for `O=C(Cc1ccc(Br)cc1)N1CCN(C(=O)c2cc(-c3cccnc3)n[nH]2)CC1`, 638 s; for `Cc1ncn(CC(=O)Nc2cccc(Cl)c2)c(=O)c1C`, 705 s. For `CC(C)NC(=O)N1CCCC(OCc2nc(-c3ccccc3)no2)C1` (configuration not stated) the value was 551 s; for `CCCN1C(=O)COc2ccc(-c3noc(C4CC(=O)N(c5ccc(C)cc5)C4)n3)cc21` (configuration not stated), 941 s; for `O=C(C1CCN(c2cnc(N3CCCC3)nc2)CC1)N1CCCCC1`, 616 s.

Molecule `CC(C)C(NC(=O)c1cccc(C#N)c1)C(=O)N1CCN(c2ccccn2)CC1` (configuration not stated) gave an RP-LC retention time of 620 s. Molecule `CCOc1ccc(NC(=O)C2CCCN(c3nnc4ccc(Cl)cn34)C2)cc1` (configuration not stated) gave an RP-LC retention time of 683 s. For `Clc1ccc(-c2ccc(CNCc3ccc4c(c3)OCO4)o2)cc1` the value was 762 s; for `CCOC(=O)c1c(C)oc2nc(C)nc(NCCCN3CCN(c4ccc(F)cc4)CC3)c12`, 738 s. On to `COC(=O)Cc1c(C(=O)OC)nnn1-c1ccc(OC)cc1`, for which the RP-LC retention time is 862 s. Turning to `COc1ccc(OC)c(CNC(=O)Cc2cccn2-c2ccc(C)cc2)c1`, the RP-LC retention time worked out at 750 s. For `CCc1ccc(NS(=O)(=O)c2ccc3c(c2)CCCC(=O)N3)cc1` the value was 794 s; for `COCc1nc(-c2ccc(OC3CN(Cc4ccncc4)C3)cc2)no1`, 589 s; for `Cc1ccc(-c2nnc(-c3nc(NCCc4c(C)noc4C)c4ccccc4n3)o2)cc1`, 955 s. As to `COc1ccccc1CNC1=NCCNC12CCN(S(=O)(=O)c1ccccc1)CC2`, the RP-LC retention time stood at 692 s. For `O=C(c1ccccc1F)N1CCC(COCc2ccccc2)CC1` the value was 945 s; for `O=C(C1CCCN(c2nc3cccnc3s2)C1)N1CCCCCC1` (configuration not stated), 795 s. Regarding `Cc1ccc(-c2nc3nc(C)cc(C)n3c2Nc2ccc(Cl)cc2)cc1`, the RP-LC retention time was 786 s. The molecule `O=C1CCC2(C(=O)NCCN3CCOCC3)CCCC=C2N1c1ccccc1` (configuration not stated) gave an RP-LC retention time of 553 s.

The molecule `CC1CCc2nn(CC(=O)NCCN3CCCCCC3)cc2C1` (configuration not stated) displayed an RP-LC retention time of 605 s. For `O=C(Nc1ccccc1)Nc1ccc2nnc(C3CC3)n2c1` the value was 703 s. For `Nc1ccc(NC(=O)c2ccc(C(F)(F)F)cc2)nc1` the value was 693 s. For `COCc1noc([C@@H]2CC(F)(F)CN2C(=O)c2ocnc2C)n1` the value was 679 s; for `O=C(Nc1ccc2c(c1)OCO2)C1CCCN(S(=O)(=O)Cc2ccc(Cl)cc2)C1` (configuration not stated), 964 s; for `CN(Cc1ccco1)C(=O)c1ccc(-n2cc(CNC(=O)C3CCC3)cn2)cc1`, 672 s. The molecule `COc1cccc(CNC(=O)C2(C)CCN(C(=O)NCC3CCCO3)CC2)c1` (configuration not stated) had an RP-LC retention time of 668 s.

As to `CC(C)N1CCCC(Cn2cc(COc3ccc4c(c3)CCC4)nn2)C1` (configuration not stated), the RP-LC retention time worked out at 667 s. For `Cc1nnc2c(NC(=O)c3ccccn3)cccn12` the value was 659 s; for `CCS(=O)(=O)c1nc2ccc(NS(=O)(=O)c3cc(OC)ccc3OC)cc2s1`, 833 s; for `N#Cc1cc2c(nc1SCC(=O)N1CCOCC1)CCCCC2`, 891 s. For `COC(=O)Nc1ccc(S(=O)(=O)Nc2nc(C)cc(C)n2)cc1` the value was 599 s; for `Cc1nn(-c2ccccc2)c2nc(N3CCCC(C(=O)NCCN4CCOCC4)C3)sc12` (configuration not stated), 670 s; for `CC(NC(=O)C1=CCN(Cc2cccc(F)c2)CC1)c1ccccc1` (configuration not stated), 662 s. For `CCOC(=O)c1c(C)[nH]c(C(=O)N2CCC(CC(=O)N3CCCCC3)CC2)c1C` the value was 741 s.

Turning to `O=C(Nc1ncn[nH]1)C1CCC1`, the RP-LC retention time was 546 s. For `COc1ccc2[nH]c(=O)c(CCC(=O)N(C)CCc3ccncc3)cc2c1` the value was 589 s; for `CCn1cnc(S(=O)(=O)N2CCCC(C(=O)NCCCc3ccccc3)C2)c1` (configuration not stated), 769 s. For `COCCN1C(=O)CCc2cc(NS(=O)(=O)c3ccc(Cl)cc3)ccc21` the value was 771 s.

`O=C(NCc1cccc(F)c1)C1CCN(c2nnc3ccc(Cl)cn23)CC1` gave an RP-LC retention time of 710 s. For `CC(C)(C)n1nnnc1C1CC2(CCOCC2)C(=O)N1Cc1cc(F)ccc1F` (configuration not stated) the value was 793 s; for `CCCN1C(=O)COc2ccc(-c3csc(NC(=O)CC)n3)cc21`, 861 s.

In turn, `C=CCNC(=O)c1nnn(Cc2ccc(Cl)cc2)c1-n1cccc1` came in with an RP-LC retention time of 954 s. With `CCSc1nnc(NC(=O)C2CCCN(Cc3nc(-c4cccs4)no3)C2)s1` (configuration not stated), the RP-LC retention time is 769 s. For `O=C(Nc1ccc2c(c1)OCO2)Nc1ccc2nc3n(c(=O)c2c1)CCCC3` the value was 651 s.

Take `Cc1ccn2cc(-c3ccc(NC(=O)c4cccs4)cc3)nc2n1`: the RP-LC retention time turned out to be 636 s. For `Cc1ccc(CNC(=O)C2CCN(S(C)(=O)=O)c3cc(C)ccc3O2)cc1` (configuration not stated) the value was 912 s; for `CC(NC(=O)C1CCN(c2cnn(Cc3ccccc3)c(=O)c2)CC1)c1ccccc1` (configuration not stated), 803 s; for `Cc1ccc(NC(=O)N(C)CC2CCOC2)cc1` (configuration not stated), 667 s. For `CCOC(=O)Cn1c(=O)c2c(nc3n2CC(C)CN3c2ccc(Br)cc2)n(C)c1=O` (configuration not stated) the value was 1010 s; for `O=C(Nc1ccc(F)cc1F)C1CCCN(S(=O)(=O)Cc2ccccc2)C1` (configuration not stated), 933 s. For `O=C(Nc1nnc(Cc2cccs2)o1)c1cc2cc([N+](=O)[O-])ccc2s1` the value was 858 s. Molecule `Cc1nn(C)c(C)c1S(=O)(=O)N1CCN(C(=O)C(C)Oc2ccccc2)CC1` (configuration not stated) had an RP-LC retention time of 761 s. For `C[C@H]1CN(C(=O)Nc2ccc(F)cc2F)C[C@@H]1c1nc(-c2cccnc2)no1` the value was 770 s; for `CCOc1ccc(NC(=O)C2(C)CCCCC(=O)N2)cc1` (configuration not stated), 690 s.

With `CN(c1nccn2c(=O)n(CC(=O)Nc3ccc(F)cc3F)nc12)C1CCCCC1`, the RP-LC retention time worked out at 902 s. For `O=C(c1cccc(F)c1)N1CCC[C@H]1c1nc(-c2ccccc2)n[nH]1` the value was 685 s. For `CN(CC1CCOC1)C(=O)Cc1ccc(Cl)cc1` (configuration not stated) the value was 741 s.

Take `O=C(NCc1cccc(Cl)c1)c1cccn1-c1cccnc1`: the RP-LC retention time was 749 s. Turning to `Cc1cc(F)ccc1NC(=O)C1CCCN1S(=O)(=O)c1cc2c(cc1C)NC(=O)C(C)O2` (configuration not stated), the RP-LC retention time amounted to 812 s. For `CN(C)CCN1C(=O)c2cccc3cc(N)cc(c23)C1=O` the value was 626 s.

In the case of `COc1ccc(-c2noc(C3CCCN3C(=O)Nc3ccccc3Cl)n2)cc1` (configuration not stated), the RP-LC retention time was 920 s.

`Cc1cc(C)cc(S(=O)(=O)N2CCc3c(c(-c4nnc(-c5ccccc5F)o4)nn3C)C2)c1` came in with an RP-LC retention time of 998 s. For `Cc1ccc(CNC(=O)C2(C)Cn3nc(C(=O)NCCCN4CCCCCC4)cc3C(=O)N2C)cc1` (configuration not stated) the value was 617 s.
